These results are taken from US11306337B2, “Polypeptides having hydrolytic activity on 1-kestose in the presence of sucrose but lacking sucrase (invertase) activity, polynucleotides encoding same and methods of producting and using same in industrial sucrose production from 1-kestose” (CTC—Centro de Tecnologia Canavieira S.A., priority 2015, dated 2022).

Assay [1] addresses T1, Saccharomyces cerevisiae invertase (Saccharomyces cerevisiae, UniProt P00724).
T1 sequence (P00724 20-532): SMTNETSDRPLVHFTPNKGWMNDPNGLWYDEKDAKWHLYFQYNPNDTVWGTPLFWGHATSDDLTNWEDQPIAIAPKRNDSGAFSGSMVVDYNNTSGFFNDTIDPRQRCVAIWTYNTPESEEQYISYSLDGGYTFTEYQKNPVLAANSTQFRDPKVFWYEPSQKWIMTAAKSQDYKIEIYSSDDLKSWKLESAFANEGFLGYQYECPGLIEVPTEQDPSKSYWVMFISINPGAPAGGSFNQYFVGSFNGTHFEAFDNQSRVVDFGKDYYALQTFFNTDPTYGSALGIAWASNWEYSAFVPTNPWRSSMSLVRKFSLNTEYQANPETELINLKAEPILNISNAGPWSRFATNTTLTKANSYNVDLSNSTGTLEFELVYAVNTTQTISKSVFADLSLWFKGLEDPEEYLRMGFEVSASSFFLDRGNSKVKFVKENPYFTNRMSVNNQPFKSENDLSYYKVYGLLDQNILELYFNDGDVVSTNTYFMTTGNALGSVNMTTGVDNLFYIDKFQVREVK
As to conditions: cited from earlier work; for Activity: substrate hydrolysed by S. cerevisiae invertase, Sainz-Polo et al., 2013; for Activity of S. cerevisiae invertase with the oligosaccharide as substrate: Sainz-Polo et al. 2013.

Assay [2] can be described thus: Sucrose inhibition assay of 1-kestose hydrolysis by partially purified recombinant 1-FEH targets (HPAEC-PAD, fructose released). The class given is biochemical. As to conditions: 380 mM sucrose; 10 mM 1-kestose, 1 hour, 30° C., pH6.0. Here is the method:
The enzymes A, B, C and D were expressed in Pichia pastoris KM71H strain with a fusion GFP protein at C-terminal in 300 mL of culture media. After 48-hour induction with 0.5% (v/v) […] of methanol, the recombinant proteins were partially purified by precipitation with ammonium sulphate at 70% of saturation, followed by solubilization with sodium phosphate buffer 50 mM pH6.0. The partially purified proteins were concentrated and analyzed by SDS-PAGE and blue-light transluminator for GFP fluorescence. The enzymatic activity assays of the partially purified enzymes were evaluated using 10 mM 1-kestose as substrate, 50 uL of enzyme and sucrose as inhibitor ranging from zero to 380 mM, in a 100 μL-reaction buffered with sodium phosphate 50 mM pH6.0. The reactions were carried for 1 hour at 30° C. and stopped by heating at 95° C. for 5 minutes. The reactions were than diluted to 4 mL with ultrapure water and analyzed high-pressure anion-exchange chromatography with pulsed amperometric detection (HPAEC-PAD, Dionex, Sunnyvale, Calif., USA). Enzyme relative activity was determined by the amount of fructose released.
After identifying that the chosen targets are active against 1-kestose but not sucrose, we performed sucrose inhibition studies in which the amount of enzyme and substrate were fixed and increasing concentrations of sucrose were added to the reaction. […]

For assay [3] the following is noted: cited from earlier work.
[4] abbreviates: 10 mM sucrose, Verhaest et al., 2007.

For the molecule `OC[C@H]1O[C@@](CO)(OC[C@@]2(O[C@H]3O[C@H](CO)[C@@H](O)[C@H](O)[C@H]3O)O[C@H](CO)[C@@H](O)[C@@H]2O)[C@@H](O)[C@@H]1O` [1-Kestose, β-D-fructofuranosyl-(2→1)-β-D-fructofuranosyl α-D-glucopyranoside], the Activity in assay [1] is 102 ± 11 µmol/min/mg.

Consider `OC[C@H]1O[C@@](CO)(OC[C@@]2(OC[C@@]3(O[C@H]4O[C@H](CO)[C@@H](O)[C@H](O)[C@H]4O)O[C@H](CO)[C@@H](O)[C@@H]3O)O[C@H](CO)[C@@H](O)[C@@H]2O)[C@@H](O)[C@@H]1O` [Nystose], for which, in assay [1], the “Activity of S. cerevisiae invertase with the oligosaccharide as substrate” value (from here on “Activity of S. cerevisiae invertase”) is listed as “hydrolyzed at a much lower rate” and the Activity is 36 ± 1 µmol/min/mg.

As for `OC[C@H]1O[C@H](OC[C@H]2O[C@H](O[C@]3(CO)O[C@H](CO)[C@@H](O)[C@@H]3O)[C@H](O)[C@@H](O)[C@@H]2O)[C@H](O)[C@@H](O)[C@H]1O` [Raffinose], the Activity in assay [1] is 187 ± 8 µmol/min/mg.

Turning to `OC[C@H]1O[C@@](CO)(O[C@H]2O[C@H](CO)[C@@H](O)[C@H](O)[C@H]2O)[C@@H](O)[C@@H]1O` [Sucrose, sucrose], in assay [1], the “Activity of S. cerevisiae invertase” value is recorded as “highest efficiency” and the Activity was 520 ± 20 µmol/min/mg.

For the molecule Inulin, in assay [1], the “Activity of S. cerevisiae invertase” value is “No significant activity” and the Activity was 2.5 ± 0.1 µmol/min/mg.

B1: enzyme D: Cichorium intybus 1-FEH IIa with W82 homologue replaced by leucine; also reported by Verhaest et al. 2007 (protein)
chain: QQIEQPYRTGYHFQPPSNWMNDPNGPMLYQGVYHFFYQYNPYAATFGDVIIWGHAVSYDLVNWIHLDPAIYPTQEADSKSCLSGSATILPGNIPAMLYTGSDSKSRQVQDLAWPKNLSDPFLREWVKHPKNPLITPPEGVKDDCFRDPSTAWLGPDGVWRIVVGGDRDNNGMAFLYQSTDFVNWKRYDQPLSSADATGTWECPDFYPVPLNSTNGLDTSVYGGSVRHVMKAGFEGHDWYTIGTYSPDRENFLPQNGLSLTGSTLDLRYDYGQFYASKSFFDDAKNRRVLWAWVPETDSQADDIEKGWAGLQSFPRALWIDRNGKQLIQWPVEEIEELRQNQVNLQNKNLKPGSVLEIHGIAASQADVTISFKLEGLKEAEVLDTTLVDPQALCNERGASSRGALGPFGLLAMASKDLKEQSAIFFRVFQNQLGRYSVLMCSDLSRSTVRSNIDTTSYGAFVDIDPRSEEISLRNLIDHSIIESFGAGGKTCITSRIYPKFVNNEEAHLFVFNNGTQNVKISEMSAWSMKNAKFVVDQSVKSAA
modifications: Fructan 1-exohydrolase precursor (W120L)
As for B1, in assay [2], the inhibition by sucrose was found to be 52%. Also, in assay [3] (setting [4]), the “inhibition by sucrose (text)” value was 0% and the “inhibition by sucrose (words)” value is given as “no longer inhibited”. Also, the “% inhibition by sucrose” value in assay [3] (10 mM sucrose) is 0% with 10 mM. Also, the Sucrose inhibition entry in assay [3] (Weak / Strong, Table 3) was “Weak”. Besides, in assay [3] (no sucrose concentration stated), the “inhibition by sucrose as described in the literature” value is listed as “strongly inhibited”.
